In patent US20100099687A1, “TADALAFIL SOLID COMPOSITES” (Teva Pharmaceutical Industries Ltd., priority 2006, published 2010):

Columns and labels:
[1] = Dissolution profile, USP Apparatus 2 (Paddles), conditions of Table 1; assay type: physicochemical; details: sample containing 20 mg tadalafil, 1000 mL aqueous 0.15 wt % sodium lauryl sulfate and 6 g/L NaH2PO4, pH about 4.5, 37° C., 50 RPM, FIG. 2
Experimental: Dissolution profiles described herein were determined in a dissolution vessel using a USP Apparatus 2 (Paddles) under the conditions described in Table 1. Samples were analyzed on-line by a UV detector.
A sample of the dry powder P-00464, containing 20 mg tadalafil was collected and its dissolution profile determined according to the conditions in Table 1. The dissolution profile of P00464 was compared with the dissolution profiles of commercial versions of tadalafil tablets (Clalis® 20 mg) and active drug substance with a particle size distribution (PSD) such that the value of d(0.9)=˜(about) 50 μm. The results of dissolution testing are illustrated in FIG. 1.
Samples of P-00464 from Example 1 and samples of tadalafil active material with PSD of d(0.9)=˜(about) 4 μm (designated TAPI AK-2186) were prepared for dissolution testing as described below. The dissolution profiles of the samples were determined according to the conditions in Table 1. The samples were analyzed on-line by UV detection, and were compared. FIG. 2 illustrates the averages of the samples for each drug. […]

[2] = cited from earlier work
[3] = organic solvents such as methanol, ethanol, and acetone; 'is understood to be'; cited from earlier work

Structure (SMILES) | tadalafil dissolved within 40 minutes [1] | water solubility ([2]; 25° C., reported by U.S. Pat. No. 6,841,167) | solubility in water ([2]; 'is understood to be') | solubility in some organic solvents [3]
CN1CC(=O)N2[C@H](c3ccc4c(c3)OCO4)c3[nH]c4ccccc4c3C[C@@H]2C1=O | less than 70 wt % | – | – | –
CN1CC(=O)N2[C@H](c3ccc4c(c3)OCO4)c3[nH]c4ccccc4c3C[C@@H]2C1=O [tadalafil, (6R-trans)-6-(1,3-benzodioxol-5-yl)-2,3,6,7,12,12a-hexahydro-2-methyl-pyrazino[1′,2′:1,6]pyrido[3,4-]indole-1,4-dione] | – | about 2 μg per milliliter | practically insoluble | only very slightly soluble
